# Assay results published in article PMC5931107, “Clinical pharmacodynamic/exposure characterisation of the multikinase inhibitor ilorasertib (ABT-348) in a phase 1 dose-escalation trial” (British Journal of Cancer, 2018).
# What was measured:
# [1] = Dose escalation: dose-limiting toxicities and MTD; type: in vivo
# Excerpt: Dose escalation was first conducted in Arm I and subsequently in Arms II and III. […] The pre-specified DLT criteria included any of the following events graded according to the Common Terminology Criteria for Adverse Events (CTCAE) version 4.0 considered ‘possibly’ or ‘probably’ related to the administration of ilorasertib in cycle 1: grade 4 absolute neutrophil count (ANC) decrease for >7 days or grade ≥ 3 ANC decrease with fever; grade 4 platelet count decrease; grade ≥ 3 proteinuria; grade 4 infusion reaction; grade ≥ 3 asthenia/fatigue; grade 3 nausea/vomiting for ≥48 h or diarrhoea for ≥72 h despite maximum supportive care; grade ≥ 2 neurotoxicity; unexpected grade 2 toxicity which required dose modification or delay of ≥1 week. Given the known adverse effects of VEGFR2 inhibition, specific criteria for hypertension were included: >150/100 mm Hg despite 2 weeks of clinically appropriate intervention, or severe hypertension at any blood pressure reading defined as systolic >200 mm Hg or diastolic > 110 mm Hg, or symptomatic hypertension at any reading; and for decline in left ventricular ejection fraction included: absolute decline >20% from baseline and/or a reduction to <39%. Except for the above categories, all grade ≥ 3 adverse events (AEs) without a definitive alternative etiology were also considered DLTs. AEs detected or worsened in cycle 2 and beyond could be incorporated into dose-escalation decisions at discretion of the investigators and study team.
# The MTD was to be continually re-estimated by a logistic regression model as the dose at which the predicted DLT rate would be 30%. For the three arms, dose-escalation decisions were made after the patient(s) in a cohort completed dosing in cycle 1.
# In Arm I, dosing commenced at 10 mg PO QD and was escalated to 180 mg PO QD. This initial starting dose was calculated using 1/6 of the highest non-severely toxic dose in dogs converted to human equivalent dose, using body surface area scaling and assuming a 60-kg human. Because of uncertainty of food effects on pharmacokinetics and the […] schedule, treatment was administered in a fasted state. […] Enrolment to Arm I was discontinued, on the basis of the protocol-specified continual reassessment method on which MTD was to be determined. […] This schedule was selected due to the anticipated lower maximum observed plasma concentration (Cmax) and greater total exposure, and the possibility that tolerability would be improved under these conditions. Dose escalation proceeded in Arm II, starting at 40 mg PO BID, and stopped at the 340-mg PO BID dose, since this dose met the protocol criteria for exceeding the MTD. The first dose was administered in the fasted state. The second dose of the treatment day was administered at least 4 h after a small meal. […]
# Aurora B = tested on: Aurora B; parameters: method as in PMID 22935731; details: 1 mM ATP; read-out: Biochemical IC50 (95% confidence limits); cited from earlier work
# FLT-3 = tested on: FLT-3; parameters: method as in PMID 22935731; details: 1 mM ATP; read-out: Biochemical IC50 (95% confidence limits); cited from earlier work
# PDGFR-β = tested on: PDGFR-β; parameters: method as in PMID 22935731; details: 1 mM ATP; read-out: Biochemical IC50 (95% confidence limits); cited from earlier work
# PDGFR-α = tested on: PDGFR-α; parameters: method as in PMID 22935731; details: PDGFR-α cellular phosphorylation, ligand stimulated; read-out: Cellular PD marker IC50 (95% confidence limits); cited from earlier work
smiles,measurement,setting,value
"Nc1ncc(-c2cnn(CCO)c2)c2scc(-c3ccc(NC(=O)Nc4cccc(F)c4)cc3)c12 [ilorasertib, Ilorasertib]",Dose that met the protocol criteria for exceeding the MTD,"[1]; Arm I, PO QD",180 mg
same,Dose that met the protocol criteria for exceeding the MTD,"[1]; Arm II, PO BID",340 mg
same,Patients who experienced DLTs,"[1]; human, in vivo, 1 cycle",10%
same,Total number of DLTs,[1]; in vivo,ten
same,IC50,PDGFR-α,16 nM
